The values below come from article PMC11187126, “Structure and dynamics of the pyroglutamylated RF-amide peptide QRFP receptor GPR103” (Nature Communications, 2024).

The target in this assay is T1, GPR103 F322^7.43A (Homo sapiens, UniProt Q96P65, F322A).
T1 construct: we used human full-length QRFPR-encoding plasmids; expressed in transfected cells; host or cells: HEK293 cells (HEK293A in the flow cytometry section), pCAGGS vector
T1 sequence (Q96P65 1-431 F322A): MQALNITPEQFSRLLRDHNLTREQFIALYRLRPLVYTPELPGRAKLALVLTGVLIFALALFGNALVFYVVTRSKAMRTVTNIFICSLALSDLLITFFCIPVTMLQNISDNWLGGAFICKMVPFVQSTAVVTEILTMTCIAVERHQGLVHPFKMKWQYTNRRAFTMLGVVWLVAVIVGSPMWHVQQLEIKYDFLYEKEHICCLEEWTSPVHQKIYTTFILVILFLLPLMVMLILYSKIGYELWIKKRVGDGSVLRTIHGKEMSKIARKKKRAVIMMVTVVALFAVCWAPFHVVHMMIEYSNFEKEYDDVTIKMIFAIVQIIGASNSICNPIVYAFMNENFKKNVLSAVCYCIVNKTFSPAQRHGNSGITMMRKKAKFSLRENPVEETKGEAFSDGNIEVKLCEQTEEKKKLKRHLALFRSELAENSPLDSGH
The experiment in a line: TGFα shedding assay; Exp. level WT (1:50). It counts as cell-based.

In general, EC50 refers to the concentration that produces a half-maximal response.

Where two headings read alike, the source gives them in different places. No end group written: not given here.

Regarding TSGPLGNLAEELNGYSRKKGGFSFRF-NH2 [QRFP26], the Emax came to 46.65 % WT (Exp. #1); 35.03 % WT (Exp. #2); 42.29 % WT (Exp. #3); 41.3% (mean, read-out: Emax); 42.7 ± 2.8% (n = 3, read-out: Emax). The substance further had an EC50 (n = 3) of 0.0245 µM.
